Test results as given in US20150144845A1, “SOLVENT OR SOLVENT COMPOSITION FOR ORGANIC TRANSISTOR PRODUCTION” (DAICEL CORPORATION, priority 2012, published 2015).
Like-named read-outs stand apart in the source and are kept apart here.

Key:
[1] = Visual solubility of pentacene in solvent for organic transistor production
Experimental: (§1) The resulting mixture was heated in a nitrogen atmosphere under a light-shielding condition at 100° C. for about 6 hours, preparing a composition for organic transistor production. With respect to the resulting composition for organic transistor production, the solubility of the organic semiconductor material was observed. Herein, the solubility was visually evaluated, and a case where no insoluble material was observed was rated as “∘: dissolution”, and a case where an insoluble material was observed was rated as “x: not dissolution”. The same shall apply hereafter.

[2] = Visual solubility of DPh-BTBT in solvent for organic transistor production
Experimental: as §1
(§2) The resulting mixture was heated in a nitrogen atmosphere under a light-shielding condition at 100° C. for about 2 hours, preparing a composition for organic transistor production. With respect to the resulting composition for organic transistor production, the solubility of the organic semiconductor material was observed.

[3] = Visual solubility of DNTT in solvent for organic transistor production
Experimental: as §1, §2

[4] = Visual solubility of Rubrene in solvent for organic transistor production; type: physicochemical; conditions: summary of Examples, 100° C.
Experimental: as §1
Rubrene (compound represented by formula (2-1)) (produced by Tokyo Chemical Industry Co., Ltd.) was used as an organic semiconductor material, and each solvent for organic transistor production shown in Table 2 was used under an environment of 20° C., providing a mixture including the organic semiconductor material in a concentration of 4.00% by weight to 5.00% by weight. The resulting mixture was heated in a nitrogen atmosphere under a light-shielding condition at 100° C. for about 2 hours, preparing a composition for organic transistor production. With respect to the resulting composition for organic transistor production, the solubility of the organic semiconductor material was observed.

| solubility of pentacene in the solvent compared with tetralin and 1,2,4-trichlorobenzene [1] | solubility of DPh-BTBT in the solvent compared with tetralin and 1,2,4-trichlorobenzene [2] | solubility of DNTT in the solvent compared with tetralin and 1,2,4-trichlorobenzene [3] | solubility of Rubrene in the solvent compared with tetralin and 1,2,4-trichlorobenzene [4] | solubility of pentacene in the solvent compared with tetralin and 1,2,4-trichlorobenzene ([1]; summary of Examples, 100° C.) | solubility of DPh-BTBT in the solvent compared with tetralin and 1,2,4-trichlorobenzene ([2]; summary of Examples, 100° C.) | solubility of DNTT in the solvent compared with tetralin and 1,2,4-trichlorobenzene ([3]; summary of Examples, 100° C.) | SMILES |
| --- | --- | --- | --- | --- | --- | --- | --- |
| better | better | better | excellent | – | – | – | CN1CCN(C)C1=O [1,3-dimethyl-2-imidazolidinone] |
| – | – | – | excellent | better | better | better | CN1CCCN(C)C1=O [1,3-dimethyl-3,4,5,6-tetrahydro-2(1H)-pyrimidinone] |
